Legend:
Palbociclib = compound: CC(=O)c1c(C)c2cnc(Nc3ccc(N4CCNCC4)cn3)nc2n(C2CCCC2)c1=O [Palbociclib]; settings: max 10 µM
Method in brief: (§1)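 In 1536-well plates, cancer cell lines in 7.5 μl DMEM/F12 or RPMI with 10% FBS spent 24 hours at 37°C and 5% CO2 and were then dosed for 72 hours with final DMSO typically 0.2%. Viability was read by CellTiter-Glo 2.0 luminescence and scaled between blank-well and DMSO-well means. The single-agent IC50 was fitted from dose responses using a logistic curve in a non-linear mixed effects model, and that logistic curve had two parameters.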

Taselisib = compound: Cc1nc(-c2cn3c(n2)-c2ccc(-c4cnn(C(C)(C)C(N)=O)c4)cc2OCC3)n(C(C)C)n1 [Taselisib]; settings: max 10 µM
Method in brief: as §1

Prexasertib = compound: COc1cccc(OCCCN)c1-c1cc(Nc2cnc(C#N)cn2)n[nH]1 [Prexasertib]; settings: max 1 µM
Method in brief: as §1

AZD1390 = compound: CC(C)n1c(=O)n(C)c2cnc3cc(F)c(-c4ccc(OCCCN5CCCCC5)nc4)cc3c21 [AZD1390]; settings: max 0.3 µM
Method in brief: as §1

Crizotinib = compound: C[C@@H](Oc1cc(-c2cnn(C3CCNCC3)c2)cnc1N)c1c(Cl)ccc(F)c1Cl [Crizotinib]; settings: max 10 µM
Method in brief: as §1

Paclitaxel = compound: CC(=O)O[C@H]1C(=O)[C@@]2(C)[C@H]([C@H](OC(=O)c3ccccc3)[C@]3(O)C[C@H](OC(=O)[C@H](O)[C@@H](NC(=O)c4ccccc4)c4ccccc4)C(C)=C1C3(C)C)[C@]1(OC(C)=O)CO[C@@H]1C[C@@H]2O [Paclitaxel]; settings: max 3 µM
Method in brief: as §1

Alisertib = compound: COc1cc(Nc2ncc3c(n2)-c2ccc(Cl)cc2C(c2c(F)cccc2OC)=NC3)ccc1C(=O)O [Alisertib]; settings: max 10 µM
Method in brief: as §1

Doxorubicin = compound: COc1cccc2c1C(=O)c1c(O)c3c(c(O)c1C2=O)C[C@@](O)(C(=O)CO)C[C@@H]3O[C@H]1C[C@H](N)[C@H](O)[C@H](C)O1 [Doxorubicin]; settings: max 1 µM
Method in brief: as §1

Carboplatin = compound: C1CC(C1)(C(=O)[O-])C(=O)[O-].N.N.[Pt+2] [Carboplatin]; settings: max 10 µM
Method in brief: as §1

Venetoclax = compound: CC1(C)CCC(CN2CCN(c3ccc(C(=O)NS(=O)(=O)c4ccc(NCC5CCOCC5)c([N+](=O)[O-])c4)c(Oc4cnc5[nH]ccc5c4)c3)CC2)=C(c2ccc(Cl)cc2)C1 [Venetoclax]; settings: max 1 µM
Method in brief: as §1

Gemcitabine = compound: Nc1ccn([C@@H]2O[C@H](CO)[C@@H](O)C2(F)F)c(=O)n1 [Gemcitabine]; settings: max 0.3 µM
Method in brief: as §1

SN-38 = compound: CCc1c2c(nc3ccc(O)cc13)-c1cc3c(c(=O)n1C2)COC(=O)[C@]3(O)CC [SN-38]; settings: max 0.3 µM
Method in brief: as §1

SG3199 = compound: CC1=CN2[C@@H](C1)C=NC3=CC(=C(C=C3C2=O)OC)OCCCCCOC4=C(C=C5C(=C4)N=C[C@@H]6CC(=CN6C5=O)C)OC [SG3199]; settings: max 0.001 µM
Method in brief: as §1

Gefitinib = compound: COc1cc2ncnc(Nc3ccc(F)c(Cl)c3)c2cc1OCCCN1CCOCC1 [Gefitinib]; settings: max 10 µM
Method in brief: as §1

AZD6738 = compound: C[C@@H]1COCCN1C2=NC(=NC(=C2)C3(CC3)[S@](=N)(=O)C)C4=C5C=CNC5=NC=C4 [AZD6738]; settings: max 10 µM
Method in brief: as §1

5-Fluorouracil = compound: O=c1[nH]cc(F)c(=O)[nH]1 [5-Fluorouracil]; settings: max 20 µM
Method in brief: as §1

AZD5363 = compound: C1CN(CCC1(C(=O)N[C@@H](CCO)C2=CC=C(C=C2)Cl)N)C3=NC=NC4=C3C=CN4 [AZD5363]; settings: max 10 µM
Method in brief: as §1

AZD2811 = compound: CCN(CCO)CCCOc1ccc2c(Nc3cc(CC(=O)Nc4cccc(F)c4)[nH]n3)ncnc2c1 [AZD2811]; settings: max 1 µM
Method in brief: as §1

AZD1775 = compound: C=CCn1c(=O)c2cnc(Nc3ccc(N4CCN(C)CC4)cc3)nc2n1-c1cccc(C(C)(C)O)n1 [AZD1775]; settings: max 3 µM
Method in brief: as §1

[1] = compound: O=C(Nc1ccc2[nH]nc(-c3ccncc3)c2c1)[C@@H]1CCN(CC(=O)N2CCN(c3ccc(-c4ncccn4)cc3)CC2)C1; settings: max 5 µM
Method in brief: as §1

AZD4320 = compound: CN(CC[C@H](CSC1=CC=CC=C1)NC2=C(C=C(C=C2)S(=O)(=O)NC(=O)C3=CC=C(C=C3)N4CCC(CC4)[C@H](C5=CC=CC=C5C6=CC=C(C=C6)Cl)O)S(=O)(=O)C(F)(F)F)CCO [AZD4320]; settings: max 1 µM
Method in brief: as §1

AZD5991 = compound: Cc1c2c(nn1C)CSCc1cc(n(C)n1)CSc1cc(c3ccccc3c1)OCCCc1c(C(=O)O)n(C)c3c-2c(Cl)ccc13 [AZD5991]; settings: max 1 µM
Method in brief: as §1

SRA737 = compound: N#Cc1cnc(Nc2cc(NC[C@H]3CNCCO3)c(C(F)(F)F)cn2)cn1 [SRA737]; settings: max 10 µM
Method in brief: as §1

AZD0156 = compound: CN(C)CCCOc1ccc(-c2ccc3ncc4c(c3c2)n(C2CCOCC2)c(=O)n4C)cn1 [AZD0156]; settings: max 3 µM
Method in brief: as §1

Lapatinib = compound: CS(=O)(=O)CCNCc1ccc(-c2ccc3ncnc(Nc4ccc(OCc5cccc(F)c5)c(Cl)c4)c3c2)o1 [Lapatinib]; settings: max 10 µM
Method in brief: as §1

Etoposide = compound: COc1cc([C@@H]2c3cc4c(cc3[C@@H](O[C@@H]3O[C@@H]5CO[C@@H](C)O[C@H]5[C@H](O)[C@H]3O)[C@H]3COC(=O)[C@H]23)OCO4)cc(OC)c1O [Etoposide]; settings: max 10 µM
Method in brief: as §1

Selumetinib = compound: Cn1cnc2c(F)c(Nc3ccc(Br)cc3Cl)c(C(=O)NOCCO)cc21 [Selumetinib]; settings: max 10 µM
Method in brief: as §1

Trametinib = compound: CC(=O)Nc1cccc(-n2c(=O)n(C3CC3)c(=O)c3c(Nc4ccc(I)cc4F)n(C)c(=O)c(C)c32)c1 [Trametinib]; settings: max 1 µM
Method in brief: as §1

MK-2206 = compound: NC1(c2ccc(-c3nc4ccn5c(=O)[nH]nc5c4cc3-c3ccccc3)cc2)CCC1 [MK-2206]; settings: max 10 µM
Method in brief: as §1

AZD8186 = compound: C[C@@H](Nc1cc(F)cc(F)c1)c1cc(C(=O)N(C)C)cc2c(=O)cc(N3CCOCC3)oc12 [AZD8186]; settings: max 10 µM
Method in brief: as §1

Savolitinib = compound: C[C@@H](c1ccc2nccn2c1)n1nnc2ncc(-c3cnn(C)c3)nc21 [Savolitinib]; settings: max 1 µM
Method in brief: as §1

AZD5153 = compound: COc1nnc2ccc(N3CCC(c4ccc(OCCN5CCN(C)C(=O)[C@H]5C)cc4)CC3)nn12 [AZD5153]; settings: max 1 µM
Method in brief: as §1

Olaparib = compound: O=C(c1cc(Cc2n[nH]c(=O)c3ccccc23)ccc1F)N1CCN(C(=O)C2CC2)CC1 [Olaparib]; settings: max 10 µM
Method in brief: as §1

Dasatinib = compound: CC1=C(C(=CC=C1)Cl)NC(=O)C2=CN=C(S2)NC3=CC(=NC(=N3)C)N4CCN(CC4)CCO [Dasatinib]; settings: max 2 µM
Method in brief: as §1

AZD7648 = compound: Cc1cc2ncnn2cc1Nc1ncc2c(n1)n(C1CCOCC1)c(=O)n2C [AZD7648]; settings: max 10 µM
Method in brief: as §1

Cell Line | IC50, cell viability 72 h (Palbociclib) [nM] | IC50, cell viability 72 h (Taselisib) [nM] | IC50, cell viability 72 h (Prexasertib) [nM] | IC50, cell viability 72 h (AZD1390) [nM] | IC50, cell viability 72 h (Crizotinib) [nM] | IC50, cell viability 72 h (Paclitaxel) [nM] | IC50, cell viability 72 h (Alisertib) [nM] | IC50, cell viability 72 h (Doxorubicin) [nM] | IC50, cell viability 72 h (Carboplatin) [nM] | IC50, cell viability 72 h (Venetoclax) [nM] | IC50, cell viability 72 h (Gemcitabine) [nM] | IC50, cell viability 72 h (SN-38) [nM] | IC50, cell viability 72 h (SG3199) [nM] | IC50, cell viability 72 h (Gefitinib) [nM] | IC50, cell viability 72 h (AZD6738) [nM] | IC50, cell viability 72 h (5-Fluorouracil) [nM] | IC50, cell viability 72 h (AZD5363) [nM] | IC50, cell viability 72 h (AZD2811) [nM] | IC50, cell viability 72 h (AZD1775) [nM] | IC50, cell viability 72 h [1] [nM] | IC50, cell viability 72 h (AZD4320) [nM] | IC50, cell viability 72 h (AZD5991) [nM] | IC50, cell viability 72 h (SRA737) [nM] | IC50, cell viability 72 h (AZD0156) [nM] | IC50, cell viability 72 h (Lapatinib) [nM] | IC50, cell viability 72 h (Etoposide) [nM] | IC50, cell viability 72 h (Selumetinib) [nM] | IC50, cell viability 72 h (Trametinib) [nM] | IC50, cell viability 72 h (MK-2206) [nM] | IC50, cell viability 72 h (AZD8186) [nM] | IC50, cell viability 72 h (Savolitinib) [nM] | IC50, cell viability 72 h (AZD5153) [nM] | IC50, cell viability 72 h (Olaparib) [nM] | IC50, cell viability 72 h (Dasatinib) [nM] | IC50, cell viability 72 h (AZD7648) [nM]
LoVo (Colorectal Carcinoma) | 7650 | 5550 | 24.4 | > 300 | > 10000 | 70.3 | > 10000 | > 1000 | > 10000 | > 1000 | 138 | 108 | > 1 | > 10000 | 1170 | > 20000 | 7270 | > 1000 | 192 | 1680 | > 1000 | > 1000 | 8630 | > 3000 | > 10000 | > 10000 | 5810 | 156 | 5230 | 952 | > 1000 | > 1000 | > 10000 | > 2000 | > 10000
Mewo (Melanoma) | > 10000 | > 10000 | 413 | > 300 | > 10000 | 653 | > 10000 | > 1000 | > 10000 | > 1000 | > 300 | > 300 | > 1 | > 10000 | > 10000 | > 20000 | > 10000 | > 1000 | 1420 | 3570 | > 1000 | > 1000 | > 10000 | > 3000 | > 10000 | > 10000 | > 10000 | 569 | > 10000 | > 10000 | > 1000 | > 1000 | > 10000 | > 2000 | > 10000
NB14 (Neuroblastoma) | 2360 | > 10000 | 4.03 | > 300 | 1280 | < 3 | 25.1 | 174 | > 10000 | 726 | 128 | 5.04 | > 1 | > 10000 | 1350 | > 20000 | > 10000 | 24.9 | 293 | > 5000 | 126 | 566 | 677 | > 3000 | > 10000 | 849 | > 10000 | 570 | 9150 | > 10000 | > 1000 | 451 | > 10000 | > 2000 | > 10000
